Results from patent US20260117184A1, “SYSTEM AND METHOD TO DIRECT THE DIFFERENTIATION OF PLURIPOTENT STEM CELL-DERIVED ODONTOBLASTS” (UNIVERSITY OF WASHINGTON, priority 2022, published 2026).

Tested on: hiPSC derived odontoblast cells (iOB)
Test: qPCR of odontoblast markers (Example 2)
Type: cell-based, human
Conditions: iOB bFGF (100 ng/mL, 14 days) compared to conventional odontoblast differentiation method (OB)
Method: This project applies the DPSC derived to odontoblast protocol previously described by the lab (30), modified for hiPSC and to reflect the full signaling pathway activities as detected by the sci-RNA-seq analysis (FIG. 11A; FIGS. 15B and 15C). […] Odontogenic medium was supplemented with 50 ng/mL BMP4 (Stemcell Technologies 78211) for 7 days followed by 25 ng/mL BMP4 (Stemcell Technologies 78211) and 400 nM SAG (Stemcell Technologies 73412) for 7 days (iOB); 100 ng/mL C6 (1,2) for 14 days (iOB C6); 100 ng/mL C6 for 7 days followed by 100 ng/mL mb7 (31,32) for 7 days (iOB C6 to mb7); or 100 ng/mL recombinant basic FGF (Gibco 13256-029) for 14 days (iOB bFGF). […]
To analyze gene expression, cells were dissociated and lysed with Trizol (Life Technology) with cell pellets stored at −80° C. RNA purification is performed via TURBO DNA-Free™ Kit (Invitrogen) or Aurum™ Total RNA Mini Kit (Bio-Rad), purity and concentration quantification via Nanodrop ND-1000 (Thermo Fisher Scientific). cDNA synthesis via iScript™ cDNA Synthesis Kit (Bio-Rad) or Applied Biosystems™ High-Capacity cDNA Reverse Transcription Kit (Thermo Fisher Scientific), and qPCR performed using oligonucleotide primers for neural crest and odontoblast markers (Table 3), SYBR Green reporter (Applied Biosystems) and 7300 Real-Time PCR System (Applied Biosystems). […]

Substance: bFGF: recombinant basic FGF (Gibco 13256-029)
- DSPP and DMP1 expression: increased DSPP and DMP1 expression
